Assay in all cases: biochemical
For assay [1], the target named is T1, YopH (Yersinia pestis, UniProt O68720). The format is biochemical.
Assay [2] deals with T1, YopH. The assay is classed as binding.
The target of assay [3] is T1, YopH.
In assay [4] the target is VHR (Homo sapiens, UniProt P51452).
The target of assay [5] is TCPTP (Homo sapiens, UniProt P17706).
For assay [6], the target named is PTP 1B (Homo sapiens, UniProt P18031).
Assay [7] concerns the target HePTP (Homo sapiens, UniProt P35236).
Assay [8] concerns the target LAR (Homo sapiens, UniProt P10586).
Assay [9] concerns the target CD45 (Homo sapiens, UniProt P08575).
Assay [10] deals with LMPTP B (Homo sapiens, UniProt P24666).
For assay [11], the target named is VHX (Homo sapiens, UniProt Q9NRW4).
The target in assay [12] is VH1 (Vaccinia virus, UniProt P07239).

Regarding `COc1ccc(C2=CC(=O)C=CC2=O)cc1` [Compound 5760449], the Ki in [1] (Ki(c)) was 6.52 ± 1.19 µM; in [1] (Ki(u)), 8.02 ± 0.589 µM.
For `c1ccc(Nc2nc(-c3ccccc3)[n+](-c3ccccc3)s2)cc1` [Compound 5858065], in that order: 1.87 ± 0.924 µM and 2.57 ± 0.563 µM.
The compound `O=C1NC(=O)/C(=C/c2ccc(-c3ccc(O)c(C(=O)O)c3)o2)S1` [Compound 5842540] registered a Kd in assay [2] of 1.34 µM. The IC50 came out at 3.9 µM in assay [3]; 27.5 µM in [4]; 30.2 µM in assay [5]; 12 µM in assay [6]; 34.5 µM in assay [7]; 12.2 µM in [8]. Besides, the IC50 in assay [9] was 5.7 µM; in assay [10], 215 µM; in assay [11], 38.5 µM; in [12], more than 250 µM. The figures for the Ki in assay [1] (Ki(c)) and in [1] (Ki(u)) were 1.13 ± 0.198 µM and 14.1 ± 4.21 µM, respectively.
On to `O=C1NC(=O)C(=Cc2ccc(-c3ccc(O)c(C(=O)O)c3)o2)C(=O)N1` [Compound 5377894], for which the “fold higher Ki value” in [1] is 12.5 fold. Besides, the Ki in assay [1] (Ki) was determined as 4.1 µM; in assay [1] (Ki(c)), 4.13 µM.
Take `O=Cc1ccc(-c2ccc(C(=O)O)c(O)c2)o1` [Compound 8164075]: in [1], the “YopH inhibition (in words)” value is given as “still capable of inhibiting YopH in the low micromolar range”. Further, the Ki in [1] (Ki(c)) was found to be 7.89 µM; in assay [1] (Ki(u)), 61.2 µM.
For the compound `Cc1cc(C)c2nc3s/c(=C\c4ccc(-c5ccc(O)c(C(=O)O)c5)o4)c(=O)n3c2c1` [Compound 5675844], the Ki is 8.8 µM in [1] (Ki), 8.82 µM in assay [1] (Ki(c)) and 10.9 µM in [1] (Ki(u)).
Take `CCN1C(=O)/C(=C\c2ccc(-c3ccc(O)cc3)o2)SC1=S` [Compound 5667408]: the Ki in assay [1] (Ki(c)) came out at 38.6 µM; in [1] (Ki(u)) it was 55.7 µM.
`O=C(O)c1cc(-c2ccc(C=C3C(=O)c4ccccc4C3=O)o2)ccc1O` [Compound 5378650] returned a Ki in [1] (Ki(c)) of 3.2 µM.
`O=C(Cn1nnc(-c2ccccc2)n1)N/N=C/c1ccc(-c2ccc(O)c(C(=O)O)c2)o1` [Compound 5680029] had a Kd in [2] of 1.04 µM. Further, the IC50 in assay [3] was 5.1 µM; in assay [4] it was 31.6 µM; in assay [5], 22.7 µM; in assay [6] it was 14.3 µM; in [7], 47.9 µM; in [8] it was 35.8 µM. Besides, the half-maximal inhibitory concentration (IC50) in [9] is 15.1 µM; in assay [10] it was more than 250 µM; in assay [11] it was 34.9 µM; in [12], more than 250 µM. Further, the Ki turned out to be 2.8 µM in assay [1] (Ki(c)) and 8.9 µM in [1] (Ki(u)).
Turning to `O=C(O)c1cccc(-c2ccc(/C=C3\SC(=S)N(Cc4ccccc4)C3=O)o2)c1` [Compound 5680282], the Ki in assay [1] (Ki(c)) came to 17.7 µM; in assay [1] (Ki(u)), 42.8 µM.
For the compound `O=C1C=CC(=O)C(c2ccc(C(=O)O)cc2)=C1` [4-(3,6-dioxocyclohexa-1,4-dienyl)benzoic acid], the time-dependence of inhibition entry in [1] is “clearly showed a time-dependent inhibition”.
With `Cc1ccc(-c2ccc(/C=C3\SC(=S)NC3=O)o2)c([N+](=O)[O-])c1` [Compound 6145062], affinity in assay [1] (Ki(u)) was put at a Ki of 94.1 µM.
Same read-out and setting: the figure for `O=C1NC(=O)/C(=C\c2ccc(-c3cccc([N+](=O)[O-])c3)o2)S1` [Compound 5376305] is 50 µM.
`N=C1NC(=O)/C(=C\c2ccc(-c3cccc(C(=O)O)c3)o2)S1` [Compound 5377688] yielded a Ki in [1] (Ki(c)) of 19.2 µM. This lies in the double-digit micromolar range.
The same measure, in the same setting: the figure for `O=C1NC(=S)S/C1=C\c1ccc(-c2cc(C(=O)O)ccc2Cl)o1` [Compound 6431206] is 16.2 µM.
As to `COc1ccc(-c2ccc(/C=C3\SC(=S)NC3=O)o2)cc1[N+](=O)[O-]` [Compound 6701338], the Ki in assay [1] (Ki(c)) came out at 6.53 µM; in assay [1] (Ki(u)), 9.8 µM.
Take `O=C(O)c1cc(-c2ccc(/C=N/n3cnnc3)o2)ccc1O` [Compound 5381181]: in assay [1] (Ki(c)), the Ki was 3.73 µM.
Turning to `O=C1NC(=S)NC(=O)C1=Cc1ccc(-c2ccc(C(=O)O)c(O)c2)o1` [Compound 5557271, 4-(5-((tetrahydro-4,6-dioxo-2-thioxopyrimidin-5(6H)-ylidene)methyl)furan-2-yl)-salicylic acid], binding in assay [2] was characterised by a dissociation constant (Kd) of 0.33 µM. The IC50 was 1.4 µM in assay [3]; 34.7 µM in [4]; 11 µM in assay [5]; 9.7 µM in assay [6]; 32.4 µM in assay [7]; 10.9 µM in assay [8]. Further, the IC50 in assay [9] was 1.7 µM; in assay [10] it was more than 250 µM; in assay [11], more than 250 µM; in assay [12], more than 250 µM. In addition, the “fold lower inhibitory constant than salicylic acid alone” value in assay [1] amounted to 2667 fold. Moreover, the Ki in [1] (Ki) and in [1] (Ki(c)) was 0.33 µM throughout.
With `Cc1cc2nc3s/c(=C\c4ccc(-c5ccc(O)c(C(=O)O)c5)o4)c(=O)n3c2cc1C` [Compound 5670901], the Kd in assay [2] is 0.54 µM. Besides, the IC50 turned out to be 2 µM in assay [3]; 21.2 µM in assay [4]; 11 µM in assay [5]; 7 µM in [6]; 32.6 µM in assay [7]; 7.7 µM in assay [8]. In addition, the IC50 in assay [9] was 2.5 µM; in assay [10], more than 250 µM; in assay [11], more than 250 µM; in [12], more than 250 µM. The Ki in assay [1] (Ki) came to 0.92 µM; in assay [1] (Ki(c)), 0.922 µM; in assay [1] (Ki(u)), 8.3 µM.
Turning to `O=C1NC(=S)S/C1=C/c1ccc(-c2ccc(C(=O)O)cc2)o1` [Compound 5660015], in assay [1] (Ki(c)), affinity was put at a Ki of 19.7 µM.
In assay [1] (Ki), `O=C(O)c1ccccc1O` [salicylic acid, reference compound] came in with a Ki of 882 µM.
As to `O=C1NC(=S)S/C1=C\c1ccc(-c2cc([N+](=O)[O-])ccc2O)o1` [Compound 5740279], the values for the Ki in assay [1] (Ki(c)) and in assay [1] (Ki(u)) were 17.1 µM and 16.5 µM, respectively.
Take `CSCCC(C(=O)O)N1C(=O)/C(=C\c2ccc(-c3ccc([N+](=O)[O-])cc3)o2)SC1=S` (centres unmarked) [Compound 5850330]: the IC50 stood at 11.5 µM in assay [3]; 49 µM in assay [4]; 197 µM in assay [5]; 38.8 µM in [6]; 95.9 µM in assay [7]; 20.8 µM in assay [8]. The IC50 in assay [9] was 38.7 µM; in [10], more than 300 µM; in assay [11], 106 µM; in assay [12], more than 250 µM. This compound also showed a Ki in [1] (Ki(c)) of 9.78 ± 3.32 µM.
As for `Cc1cc(C(=O)O)ccc1-c1ccc(/C=C2\SC(=S)NC2=O)o1` [Compound 6338530], the results for the inhibition constant Ki in assay [1] (Ki(c)) and in assay [1] (Ki(u)) were 11.4 µM and 84.2 µM, respectively.
As to `O=C1NC(=O)/C(=C\c2ccco2)S1` [Compound 5377816], in [1], the “YopH inhibition (in words)” value is on record as “complete loss of YopH inhibition”.

(Values after US20090312352A1 (priority 2004, published 2009).)
